The source of these data is the NIST ThermoML archive (doi:10.1021/je5004466).

SMILES strings stand for the structures. Numbers after ± are expanded uncertainties.

For the series the following is noted: Crystal; visual observation.

As for `C[n+]1ccn(CCOCCOCCn2cc[n+](C)c2)c1.F[P-](F)(F)(F)(F)F.F[P-](F)(F)(F)(F)F`, the Normal melting temperature came out at 91 ± 2 °C.
